Laboratory results: patent US6379665B1, “Phospholipase D polypeptide and DNA sequences” (Onyx Pharmaceuticals, Inc., priority 1996, dated 2002)

Columns and labels:
PLD1 = test: basic PLD assay with purified PLD1 and activators (headgroup-labeled phosphatidylcholine); type: biochemical, human; parameters: increase in maximal effect of PKC- on PLD1: dose or concentration left out as unconfirmed; settings: for lipid content giving maximal activation of PLD1: lipid fraction of vesicles; for stimulation of PLD1 activity by lipid: vesicles with 7% acidic lipid in PE/PS background
Method: The basic PLD assay was performed as described in Hammond, J. Biol. Chem. 270: 29640-43 (1995) using headgroup-labeled phosphatidyl-choline. Lipids were prepared and labeled. Labeled choline was obtained from American Radiolabelled Chemicals Inc. (Catalog No. ART 284) and extracted with chloroform and methanol 100 ml chloroform/100 ml methanol/90 ml water (100,000 dpm/assay; 1.6 ml). The mixture was vortexed, spun and the bottom layer collected and added to the lipid mixture to give a final concentration of 67 mM PE (Avanti Polar Lipids, Alabaster, Ala., catalog no 850757), 7.6 mM PIP2 (suspended in 20 mM Hepes, pH 7) and 5.4 mM PC (Avanti catalog no 850457). The labeled choline/lipid mixture was sonicated and vortexed until the lipids are dissolved. Sf9 cells were plated onto large flasks (30×10^6 cells/flask) and left to adhere. Once adhered, medium was removed and the cells were infected with virus (at 1:5 or 1:10) for 1 hour with gentle rocking. After that time, virus was removed and fresh medium added, and the cells left to grow for 48 hours at 27 C. Medium was removed from the flask and the cells were washed once with PBS and then lysed in 5 ml lysis buffer (25 mM Tris, 5 mM EDTA, pH 7.5). Cells were scraped out of the flask, placed on ice, sonicated for 10 seconds and centrifuged in a […] centrifuge for 10 minutes at 700 rpm. Supernatant was removed and spun at 30,000 rpm for 60 minutes. Supernatant from this second centrifugation was then removed, and the pellet was resuspended in 0.5 ml lysis buffer, votexed and allowed to settle out.
For the assay, the resulting supernatant containing PLD1 enzyme (1-10 ml) was combined with G-protein(s), 20 ml assay buffer (30 mM Na-Hepes, pH 7.5, 3 mM EGTA, 80 mM KCl, 1 mM DTT, 3.0 mM MgCl2 and 2.0 mM CaCl2) and 10 mM Hepes to make a total volume of 50 ml. 50 ml of the labeled lipid mixture was added, vortexed thoroughly, and incubated at 37 C. for 30 minutes. The reaction was stopped by adding 200 ml of 10% TCA and 100 ml of 10 mg/ml BSA and centrifugation for 5 minutes at 10,000 rpm. […] of the supernatant was removed and counted in 2 ml of scintillation fluid using a LKB scintillation counter for 60 seconds. This was the basic assay used for the following experiments; any modifications were as described below.
To investigate the dependence of enzyme activity on calcium and magnesium, the concentrations of calcium and magnesium ions of the assay medium were varied. For some assays the lipid component of the vesicles was altered. Ptdins (4,5)P2 was purified from a lipid extract of bovine brain as described in Hammond, supra. Synthetic Ptdins (3,4,5)P3 was obtained from Glenn Prestwich, Dept. of Chemistry, SUNY Stony Brook. [^32P]-labeled phospholipids were isolated from extracts of U937 cells labeled overnight with [^32P] PO4 2- as described in Hammond, supra.
Vesicles containing 7% acidic lipid in a background of PE/PS were employed in the foregoing assay. The lipids tested were PI(4,5)P2, PI(3,4,5)P3, PI4P and PI.
ARF-stimulated PLD1activity was determined as the free concentrations of these ions were varied in the assay medium. PLD1 activity was insensitive to changes in Ca^2+ concentration over a side range (<10^−8 M to 10^−2 M). By contrast, ARF-stimulated PLD1 activity was dependent on Mg^2+ with half-maximal activity observed at approximately 10^−4 M.
PLD1 was incubated with increasing concentrations of purified GTP S-activated ARF1(ADP-ribosylation factor 1), RhoA, Rac1 and cdc42. […] RhoA and Rac1 stimulated the enzyme approximately 10- and 13-fold respectively and cdc42 produced an approximately 5-fold activation. Effects of ARF and Rac1 were clearly saturable and, although the concentrations of purified RhoA and cdc42 obtained limited the final concentrations achieved in the assay, at the highest concentrations used, effects of these activators also appeared to be approaching saturation. Activation of PLD1 by these G-proteins was strictly dependent on GTP S. […]

HL-60 cells = test: RT-PCR quantification of hPLD2 during dbcAMP-induced HL-60 cell differentiation; type: cell-based, human; settings: 0.5 mM dbcAMP
Method: From the data of Example 7, it was known that a human analog of mPLD2 existed. mPLD2 primers were made from the expressed sequence tags existing in GenBank. To analyze changes in the levels of hPLD2 activity during HL-60 cell differentiation induced by dcbAMP, HL-60 cells maintained in RPMI-1640 medium supplemented with 10% fetal bovine serum, 100 units.ml penicillin and 100 µg/ml streptomycin in a humidified atmosphere containing 5% CO2, at 37 C. were grown in RPMI-1640 medium without fetal bovine serum for 24 hours. Differentiation was initiated by the addition of 0.5 mM dbcAMP. Levels of hPLD2 were quantified later by RT-PCR. Total RNA was isolated from the HL-60 cells at the exponential growth stage by the acid guanidine thiocyanate method following the protocol of Chomczynski, Anal. Biochem. 162:156-62(1992). Two g of RNA was reverse transcribed by using random hexamer mixed primers. The number of amplification cycles were determined to individual primer sets in order to maintain exponential rate of product amplification. Amplified DNA fragments were subjected to electrophoresis on 1.5% agarose gel and visualized by ethidium bromide staining. The intensity of bands was quantified by a densitometer (Atto Densitograph, Tokyo, Japan). Primer E (Forward):
5′[…] 3′. Primer F (reverse):
5′[…] 3′. Amplification conditions used were 94 C. for 30 seconds, 60 C. for 1 minute, and 72 C. for 1 minute; 25-27 cycles.

Compound: [Ca+2] [Ca^2+]
- sensitivity of PLD1 activity to ion concentration (PLD1; ARF-stimulated, <10^−8 M to 10^−2 M): insensitive

Compound: [Mg+2] [Mg^2+]
- EC50 (PLD1; ARF-stimulated PLD1, free ion concentration, read-out: concentration for half-maximal ARF-stimulated PLD1 activity): ~100 µM

Compound: CCCCCCCCCCCCCC(=O)O[C@@H]1[C@@H](C)[C@@]2(O)[C@@H](C=C(CO)C[C@]3(O)C(=O)C(C)=C[C@@H]23)[C@@H]2C(C)(C)[C@]12OC(C)=O [PMA, phorbolmyristate acetate]
- increase in potency with which PKC- stimulated PLD1 (PLD1; 100 mM PMA in assay medium): approximately 10 fold
- increase in maximal effect of PKC- on PLD1 (PLD1; PMA in assay medium): approximately 1.5 fold

Compound: O=P(O)(O)O[C@@H]1[C@H](O)[C@H](O)[C@@H](OP(=O)(O)O)[C@H](OP(=O)(O)O)[C@H]1O [inositol 1,4,5 trisphosphate]
- activation of PLD1 or block of activation by PI(4,5)P2 or PI(3,4,5)P3 (PLD1; soluble, concentrations up to […]): neither activated PLD1 nor blocked activation

Compound: ARF1: Human ARF1, bacterially-expressed and purified G-protein, GTP S-activated
- stimulation of PLD1 (maximal, concentration series) (PLD1; GTP S-activated G-protein, increasing concentrations): approximately 50 fold
- activation of PLD1 by activator alone (PLD1; maximally effective concentration: ARF1 4.7 M, RhoA 3.8 M, Rac1 5.3 M, cdc42 5.5 M, PKC- 0.043 M): 49 fold
- activation of PLD1 over basal combined with PKC- (PLD1; plus maximally effective PKC-): 145 fold

Compound: PI(3,4,5)P3
- lipid content giving maximal activation of PLD1 (PLD1): approximately 7%
- stimulation of PLD1 activity by lipid (PLD1): stimulated

Compound: PI(4,5)P2
- lipid content giving maximal activation of PLD1 (PLD1): approximately 7%
- stimulation of PLD1 activity by lipid (PLD1): stimulated

Compound: hPLD2: human analog of mPLD2
- increase in level (printed as activity) on day 1 (HL-60 cells; day 1, RT-PCR): approximately 8 fold
- increase in level (printed as activity) on day 2 (HL-60 cells; day 2, RT-PCR): approximately 12 fold
- increase in level (printed as activity) on day 3 (HL-60 cells; day 3, RT-PCR): approximately 20 fold

Compound: phosphotidylinositol 4-phosphate [PI4P]
- stimulation of PLD1 activity by lipid (PLD1): Only PI(4,5)P2 and PI(3,4,5)P3 stimulated

Compound: phosphotidylinositol [PI]
- stimulation of PLD1 activity by lipid (PLD1): Only PI(4,5)P2 and PI(3,4,5)P3 stimulated
